Measurements taken from patent US6407116B1, “Nitrogenous fused-ring compounds, process for the preparation of the same, and drugs” (Takeda Chemical Industries, Inc., priority 1997, dated 2002).
Where a name gives a salt, the structure may show the parent alone.

Row | SMILES | melting point
1 | Cl.O=c1[nH]c(=O)n(CCCCN2CCC(c3c[nH]c4ccccc34)CC2)c2ccccc12 | 250 to 252 °C
2 | Cl.O=c1c2ccccc2n(CCCCN2CCC(OC(c3ccccc3)c3ccccc3)CC2)c(=O)n1C1CCCCC1 | 206 to 208 °C
3 | Cl.O=c1[nH]c(=O)n(CCCCN2CCN(C(c3ccccc3)c3ccccc3)CC2)c2ccccc12 | 161 to 163 °C
4 | Cl.O=c1[nH]c(=O)n(CCCCN2CCC(OC(c3ccccc3)c3ccccc3)CC2)c2ncccc12 | 121 to 123 °C
5 | CS(=O)(=O)Nc1ccc2c(c1)c(=O)[nH]c(=O)n2CCCCN1CCC(OC(c2ccccc2)c2ccccc2)CC1.Cl | 225 to 227 °C
6 | COC(=O)C(C)(C)c1ccc2c(c1)c(=O)[nH]c(=O)n2CCCCN1CCC(OC(c2ccccc2)c2ccccc2)CC1.Cl | 223 to 225 °C
7 | COC(=O)C1(n2c(=O)c3ccccc3n(CCCCN3CCC(OC(c4ccccc4)c4ccccc4)CC3)c2=O)CCCC1.Cl | 178 to 180 °C
8 | O=c1[nH]c(=O)n(CCCN2CCC(OC(c3ccccc3)c3ccccc3)CC2)c2ccccc12 [Example 1, 2,4-Dioxo-1-[3-(4-diphenylmethoxy-1-piperidinyl)propyl]-1,2,3,4-tetrahydroquinazoline] | 149 to 151 °C
9 | O=c1[nH]c(=O)n(CCCCN2CCC(OC(c3ccccc3)c3ccccc3)CC2)c2cc(Cl)ccc12 [Example 9, 7-Chloro-2,4-dioxo-1-[4-(4-diphenylmethoxypiperidino)butyl]-1,2,3,4-tetrahydroquinazoline] | 169 to 171 °C
10 | O=c1[nH]c(=O)n(CCCCN2CCC(OC(c3ccccc3)c3ccccc3)CC2)c2cc([N+](=O)[O-])ccc12 [Example 11, 2,4-Dioxo-1-[4-(4-diphenylmethoxypiperidino)butyl]-7-nitro-1,2,3,4-tetrahydroquinazoline] | 214 to 215 °C
11 | Nc1ccc2c(=O)[nH]c(=O)n(CCCCN3CCC(OC(c4ccccc4)c4ccccc4)CC3)c2c1 [Example 39, 7-Amino-2,4-dioxo-1-[4-(4-diphenylmethoxypiperidino)butyl]-1,2,3,4-tetrahydroquinazoline] | 162 to 164 °C
12 | CN(C)c1ccc2c(c1)c(=O)[nH]c(=O)n2CCCCN1CCC(OC(c2ccccc2)c2ccccc2)CC1 [Example 42, 6-Dimethylamino-2,4-dioxo-1-[4-(4-diphenylmethoxypiperidino)butyl]-1,2,3,4-tetrahydroquinazoline] | 165 to 167 °C
13 | O=C(O)CC(=O)Nc1ccc2c(c1)c(=O)[nH]c(=O)n2CCCCN1CCC(OC(c2ccccc2)c2ccccc2)CC1 [Example 48, [2,4-Dioxo-1-[4-(4-diphenylmethoxypiperidino)butyl]-1,2,3,4-tetrahydro-6-quinazolinyl]carbamoylacetic acid] | 166 to 168 °C
14 | O=c1[nH]c2ccccc2c(=O)n1CCCN1CCC(OC(c2ccccc2)c2ccccc2)CC1 [Example 79, 2,4-Dioxo-3-[3-(4-diphenylmethoxypiperidino)propyl]-1,2,3,4-tetrahydroquinazoline] | 173 to 175 °C
15 | COC(=O)c1ccc2c(=O)[nH]c(=O)n(CCCCN3CCC(OC(c4ccccc4)c4ccccc4)CC3)c2c1 [Example 85, Methyl 2,4-dioxo-1-[4-(4-diphenylmethoxypiperidino)butyl]-1,2,3,4-tetrahydroquinazoline-7-carboxylate] | 192 to 194 °C
16 | O=C(O)c1ccc2c(c1)c(=O)[nH]c(=O)n2CCCCN1CCC(OC(c2ccccc2)c2ccccc2)CC1 [Example 89, 2,4-Dioxo-1-[4-(4-diphenylmethoxypiperidino)butyl]-1,2,3,4-tetrahydroquinazoline-6-carboxylic acid] | 161 to 163 °C

Continued, values first:

Row | melting point | SMILES
17 | 127 to 128 °C | Cl.Cn1c(=O)c2ccccc2n(CCCN2CCC(OC(c3ccccc3)c3ccccc3)CC2)c1=O
18 | 119 to 121 °C | N#CCCCCn1c(=O)c2ccccc2n(CCCCN2CCC(OC(c3ccccc3)c3ccccc3)CC2)c1=O (as salt: hydrochloride) [Example 93, 2,4-Dioxo-1-[4-(4-diphenylmethoxypiperidino)butyl]-1,2,3,4-tetrahydroquinazoline-3-valeronitrile]
19 | 173 to 174 °C | O=c1[nH]c(=O)n(CCCCCN2CCC(OC(c3ccccc3)c3ccccc3)CC2)c2ccccc12 [Example 3, 2,4-Dioxo-1-[5-(4-diphenylmethoxy-1-piperidinyl)pentyl]-1,2,3,4-tetrahydroquinazoline]
20 | 109 to 110 °C | COC(=O)Cn1c(=O)c2ccccc2n(CCCN2CCC(OC(c3ccccc3)c3ccccc3)CC2)c1=O [Example 14, Methyl 2,4-dioxo-1-[3-(4-diphenylmethoxypiperidino)propyl]-1,2,3,4-tetrahydroquinazoline-3-acetate]
21 | 91 to 93 °C | COC(=O)Cn1c(=O)c2ccccc2n(CCCCN2CCC(OC(c3ccccc3)c3ccccc3)CC2)c1=O [Example 15, Methyl 2,4-dioxo-1-[4-(4-diphenylmethoxypiperidino)butyl]-1,2,3,4-tetrahydroquinazoline-3-acetate]
22 | 170 to 172 °C | O=C(O)Cn1c(=O)c2ccccc2n(CCCN2CCC(OC(c3ccccc3)c3ccccc3)CC2)c1=O [Example 49, 2,4-Dioxo-1-[3-(4-diphenylmethoxypiperidino)propyl]-1,2,3,4-tetrahydroquinazoline-3-acetic acid]
23 | 184 to 186 °C | O=C(O)Cn1c(=O)c2ccccc2n(CCCCN2CCC(OC(c3ccccc3)c3ccccc3)CC2)c1=O [Example 50, 2,4-Dioxo-1-[4-(4-diphenylmethoxypiperidino)butyl]-1,2,3,4-tetrahydroquinazoline-3-acetic acid]
24 | 150 to 151 °C | O=C(O)CCn1c(=O)c2ccccc2n(CCCN2CCC(OC(c3ccccc3)c3ccccc3)CC2)c1=O [Example 51, 2,4-Dioxo-1-[3-(4-diphenylmethoxypiperidino)propyl]-1,2,3,4-tetrahydroquinazoline-3-propionic acid]
25 | 153 to 155 °C | O=C(O)Cn1c(=O)n(CCCCN2CCC(OC(c3ccccc3)c3ccccc3)CC2)c(=O)c2ccccc21 [Example 72, 2,4-Dioxo-3-[4-(4-diphenylmethoxypiperidino)butyl]-1,2,3,4-tetrahydroquinazoline-1-acetic acid]
26 | 237 to 238 °C | O=C(O)CCn1c(=O)n(CCCN2CCC(OC(c3ccccc3)c3ccccc3)CC2)c(=O)c2ccccc21 [Example 75, 2,4-Dioxo-3-[3-(4-diphenylmethoxypiperidino)propyl]-1,2,3,4-tetrahydroquinazoline-1-propionic acid]
27 | 110 to 112 °C | O=C(O)CCn1c(=O)n(CCCCN2CCC(OC(c3ccccc3)c3ccccc3)CC2)c(=O)c2ccccc21 [Example 76, 2,4-Dioxo-3-[4-(4-diphenylmethoxypiperidino)butyl]-1,2,3,4-tetrahydroquinazoline-1-propionic acid]
28 | 227 to 229 °C | O=C(O)CCCn1c(=O)n(CCCCN2CCC(OC(c3ccccc3)c3ccccc3)CC2)c(=O)c2ccccc21 [Example 78, 2,4-Dioxo-3-[4-(4-diphenylmethoxypiperidino)butyl]-1,2,3,4-tetrahydroquinazoline-1-butyric acid]
29 | 140 to 142 °C | O=c1[nH]c2ccccc2c(=O)n1CCCCN1CCC(OC(c2ccccc2)c2ccccc2)CC1 [Example 80, 2,4-Dioxo-3-[4-(4-diphenylmethoxypiperidino)butyl]-1,2,3,4-tetrahydroquinazoline]
